Experimental data taken from patent US8377943B2, “2,4-diaminopyrimidine derivates as PTK2-inhibitors for the treatment of abnormal cell growth” (Boehringer Ingelheim International GmbH, priority 2008, dated 2013).

Key:
PTK2 = biological target: T1, PTK2 (Homo sapiens, UniProt Q05397); assay: PTK2 Enzyme Test (DELFIA assay, poly-Glu-Tyr substrate); type: biochemical; settings: active PTK2 enzyme, 50 μM ATP in ATP Mix, 1 h pre-incubation
T1 construct: purchased Invitrogen PV3832
How it was run: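 Active PTK2 (0.01 μg/well) pre-incubated 1 h at RT with compound, then reacted 1 h with 50 μM ATP (in ATP mix) and poly(Glu,Tyr) 4:1 substrate, 2% DMSO final, pH 7.5. Biotinylated product captured on streptavidin, detected by Eu-PY20 time-resolved fluorescence; IC50 by sigmoidal fit, variable Hill slope.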

[1] = biological target: T2, PTK2-phosphorylation at tyrosine 397 (pY397) (Homo sapiens, UniProt Q05397); assay: Phospho-PTK2 (pY397) Assay in PC-3 cells; type: cell-based; settings: PC-3 prostate carcinoma cells, 2 h incubation; read-out: PC3pPTK2 Y397 EC50
T2 construct: endogenous in cells; host or cells: PC-3 (ATCC CRL-1435)
T2 sequence (Q05397 whole entry): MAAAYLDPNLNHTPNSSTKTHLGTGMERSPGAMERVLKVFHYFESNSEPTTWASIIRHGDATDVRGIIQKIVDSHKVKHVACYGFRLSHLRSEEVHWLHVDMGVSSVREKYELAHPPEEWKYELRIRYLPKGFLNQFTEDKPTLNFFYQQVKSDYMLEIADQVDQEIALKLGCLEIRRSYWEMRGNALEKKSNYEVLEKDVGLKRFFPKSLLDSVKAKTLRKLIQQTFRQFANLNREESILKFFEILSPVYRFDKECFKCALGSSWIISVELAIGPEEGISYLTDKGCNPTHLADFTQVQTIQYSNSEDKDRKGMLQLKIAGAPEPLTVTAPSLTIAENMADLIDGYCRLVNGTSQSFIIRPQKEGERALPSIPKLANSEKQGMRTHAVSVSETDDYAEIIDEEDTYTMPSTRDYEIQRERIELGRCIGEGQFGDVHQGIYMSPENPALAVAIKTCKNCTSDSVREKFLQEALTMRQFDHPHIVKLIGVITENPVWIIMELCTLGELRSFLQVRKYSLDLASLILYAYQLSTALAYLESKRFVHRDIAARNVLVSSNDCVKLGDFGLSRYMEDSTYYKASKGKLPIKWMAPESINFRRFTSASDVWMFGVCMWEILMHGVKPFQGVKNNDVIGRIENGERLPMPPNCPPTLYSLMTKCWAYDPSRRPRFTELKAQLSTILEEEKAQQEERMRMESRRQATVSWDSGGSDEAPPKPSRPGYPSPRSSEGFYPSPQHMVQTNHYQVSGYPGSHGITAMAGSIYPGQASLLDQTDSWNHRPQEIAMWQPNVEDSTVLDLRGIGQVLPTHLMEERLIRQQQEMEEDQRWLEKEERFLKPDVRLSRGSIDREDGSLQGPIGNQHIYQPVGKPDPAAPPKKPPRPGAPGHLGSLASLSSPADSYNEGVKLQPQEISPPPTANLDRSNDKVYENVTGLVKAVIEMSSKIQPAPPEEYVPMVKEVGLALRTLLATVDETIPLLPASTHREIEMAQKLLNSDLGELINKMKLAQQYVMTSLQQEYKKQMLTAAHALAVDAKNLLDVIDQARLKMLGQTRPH
How it was run: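 PC-3 cells (2×10^4/well, F12K + 10% FCS) exposed to compound (about 0.8 nM–50 μM, 1% DMSO final) for 2 h at 37 °C. Then formaldehyde-fixed and immunostained with anti-pY397 PTK2 (total PTK2 control) and an HRP secondary. EC50 from sigmoidal fit with variable Hill slope.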

T1 sequence (Q05397 whole entry): as above

Question: Which IC50 (PTK2) does the source give for `CCN1CCC[C@@H](NC(=O)c2ccc(Nc3ncc(C(F)(F)F)c(NCc4ccc(C)cc4N(C)S(C)(=O)=O)n3)c(OC)c2)C1` [Example 17] here?
Answer: 2 nM

Question: What about the EC50 [1] of the same compound?
Answer: 0.19 nM

Question: How did the IC50 (PTK2) turn out when `COc1cc(C(=O)N[C@H]2CCN(C)C[C@H]2F)ccc1Nc1ncc(C(F)(F)F)c(NCc2ccc(C)cc2N(C)S(C)(=O)=O)n1` [Example 119] was run?
Answer: 3 nM

Question: And the EC50 [1]?
Answer: 3 nM

Question: With `COc1cc(N2CCN(C3COC3)CC2)ccc1Nc1ncc(C(F)(F)F)c(NCc2ccc(F)cc2N(C)S(C)(=O)=O)n1` [Example 98] as the compound, how does the IC50 (PTK2) read?
Answer: 3 nM

Question: What about the EC50 [1] of the same compound?
Answer: 2 nM

Question: How did the IC50 (PTK2) turn out when `COc1cc(N2CCN(C3CCN(C)CC3)CC2)ccc1Nc1ncc(C(F)(F)F)c(NCc2ccc(C)cc2N(C)S(C)(=O)=O)n1` [Example 112] was run?
Answer: 2 nM

Question: And the EC50 [1]?
Answer: 3 nM

Question: What does the source list for `Cc1ccc(CNc2nc(Nc3ccc(C(=O)N[C@H]4CC[C@H](N5CCN(CC6CC6)CC5)CC4)cc3F)ncc2C(F)(F)F)c(N(C)S(C)(=O)=O)c1` [Example 91]?
Answer: IC50 (PTK2): 3 nM; EC50 [1]: 2 nM
